We go through 1 substance from US9409975B2, “Antibody binding microbial heparin binding motif to retard or prevent microbial biofilm formation on implanted medical devices” (priority 2012, dated 2016).

For test [1], the system named is Candida albicans BWP17 wt. The experiment in a line: Filipin and calcofluor white staining microscopy with or without heparin. It counts as cell-based. The following applies: 100 units/ml heparin, heparin-treated vs untreated organisms. As to the method: Heparin effect on Candida albicans growth and morphology was determined. A single colony of BWP17 wt was inoculated into 3 ml YPD medium and incubated overnight at 30° C. with shaking at 225 rpm. Overnight cultures were diluted to an OD600 of 0.1 in 5 ml of YPD (yeast) or RPMI-HEPES (hyphae) in a 50 ml conical polypropylene tube and incubated in the presence or absence of 100 units/ml preservative-free pharmaceutical heparin at 30° C. for six hours. Cells (1 ml) were fixed with an equal volume of 4% formaldehyde in FACS buffer at 4° C. for one hour, then pelleted (7,000 rpm for 3 minutes) and washed with PBS. After reconstitution in 0.5 ml PBS, filipin (50 mg/ml stock solution in DMSO) was added to a final concentration of 100 μg/ml and incubated with cells at room temperature for five minutes. Cells were pelleted, washed with PBS and mounted on a slide using Fluoromount G. For calcofluor white staining, after six hours incubation, 1 μl of 1 mg/ml stock solution of calcofluor white in 0.1 N NaOH was added to 100 μl cells to a final calcofluor white concentration of 10 μg/ml.
Microscopy was performed by imaging filipin, PKH26, DAPI, and heparin-Alexa Fluor 488 on a Nikon Ti-E inverted microscope with a 100×CFI APO oil NA 1.49 objective. Filipin was excited with a Prior Lumen 200 metal halide light source set at 10% light output. […]

Test [2] deals with C. albicans binding to heparin. The experiment in a line: Inhibition of binding of CFSE-labeled C. albicans to plate-bound heparin (antibody and heparin inhibition studies). The class given is cell-based, Candida albicans. The protocol:
A single colony of C. albicans was suspended in CSM to an OD600 of 0.1, diluted 1:200 into 25 ml CSM and grown at 30° C. overnight to mid-log phase (OD600 0.6-0.7). Cells were washed twice in sterile PBS and suspended in PBS at 2×10^7 CFU/ml. Carboxyfluorescein succinimidyl ester (Life Technologies) was dissolved in DMSO, diluted in PBS to 50 μM, and 0.5 ml CFSE mixed with 0.5 ml C. albicans suspension. The mixture was incubated for 20 min at room temperature on a rotator, washed once with FACS buffer, once with PBS, then suspended in 1 ml FACS buffer. Intensity of labeling was determined as the mean fluorescence intensity using a BD Accuri C6 cytometer (San Jose, Calif.) with excitation at 488 nm and a 533/30 emission filter. […] The following afternoon, C. albicans wild type strain and mutants were labeled with CFSE as follows: after growth of C. albicans to mid-log phase in CSM medium, organisms were washed two times in PBS and suspended in PBS at a concentration of 2×10^7/ml. 0.5 ml cells was mixed with 0.5 ml CFSE, covered in foil, and rotated on a mixer for 20 minutes at room temperature. […] At the end of the incubation period, wells were washed three times with PBS, and fluorescence in each well was measured (Beckman Coulter Multimode detector DTX880). […]

For the substance heparin, the “integrity of membrane sterols (filipin) and location of septin rings (calcofluor white)” value in test [1] is on record as “identical”. Besides, the “binding of C. albicans to solid-phase heparin after preincubation with heparin, in words” value in test [2] (2.5 units (12.5 μg) solid-phase heparin) is listed as “significantly decreased”. Moreover, the “decrease in binding of C. albicans to heparin after pre-incubation with soluble heparin” value in test [2] (CFSE-labeled C. albicans pre-incubated with 100 units/ml heparin, p=0.022, data not shown) is 27%.
